Assay results: article PMC7992105 (Medicinal chemistry research : an international journal for …, 2020)
pKi: −log10 of the molar value.

Target: CB2 (cannabinoid receptor subtype 2) (Homo sapiens, UniProt P34972)
Type: binding

CB2 (cannabinoid receptor subtype 2), sequence (P34972 whole entry): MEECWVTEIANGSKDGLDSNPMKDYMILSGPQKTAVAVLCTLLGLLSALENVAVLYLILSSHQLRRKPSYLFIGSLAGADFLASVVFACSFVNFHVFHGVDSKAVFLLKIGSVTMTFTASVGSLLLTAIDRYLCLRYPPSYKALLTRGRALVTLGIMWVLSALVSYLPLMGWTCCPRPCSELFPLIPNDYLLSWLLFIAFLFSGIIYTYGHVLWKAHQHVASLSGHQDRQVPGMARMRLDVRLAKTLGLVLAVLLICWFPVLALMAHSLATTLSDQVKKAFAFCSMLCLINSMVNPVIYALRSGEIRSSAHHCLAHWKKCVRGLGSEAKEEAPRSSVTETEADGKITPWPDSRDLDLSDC

## O=C1c2ccccc2NC(=N/N=C/c2cccs2)[C@@H]2CCCN12 [4g, (S,E)-11-[2-(2-thiophenylmethylene)hydrazono]-pyrrolo[2,1-c][1,4]benzodiazepine]
  pKi: 6.31

## O=C1c2ccccc2NC(=N/N=C/c2c[nH]c3ccccc23)[C@@H]2CCCN12 [4h, (S,E)-11-[2-(3-indolylmethylene)hydrazono]-pyrrolo[2,1-c][1,4]benzodiazepine]
  pKi: 5.33
